Experimental data from patent US10604531B2, “Enhancer of zeste homolog 2 inhibitors” (GLAXOSMITHKLINE INTELLECTUAL PROPERTY (NO.2) LIMITED, priority 2016, dated 2020).

Columns and labels:
[1] = target: EZH2 within the PRC2 complex (FLAG-EZH2, EED, SUZ12, RbAp48, AEBP2) (Homo sapiens (Human), UniProt Q15910); experiment: EZH2 methyltransferase scintillation proximity assay (SPA), PRC2 complex; assay type: biochemical; conditions: 3H-SAM, biotinylated histone H3K27 peptide, 60 min at room temperature; values of 10 nM approach the assay's limit of detection
Chain of EZH2 within the PRC2 complex (FLAG-EZH2, EED, SUZ12, RbAp48, AEBP2) (Q15910 whole entry): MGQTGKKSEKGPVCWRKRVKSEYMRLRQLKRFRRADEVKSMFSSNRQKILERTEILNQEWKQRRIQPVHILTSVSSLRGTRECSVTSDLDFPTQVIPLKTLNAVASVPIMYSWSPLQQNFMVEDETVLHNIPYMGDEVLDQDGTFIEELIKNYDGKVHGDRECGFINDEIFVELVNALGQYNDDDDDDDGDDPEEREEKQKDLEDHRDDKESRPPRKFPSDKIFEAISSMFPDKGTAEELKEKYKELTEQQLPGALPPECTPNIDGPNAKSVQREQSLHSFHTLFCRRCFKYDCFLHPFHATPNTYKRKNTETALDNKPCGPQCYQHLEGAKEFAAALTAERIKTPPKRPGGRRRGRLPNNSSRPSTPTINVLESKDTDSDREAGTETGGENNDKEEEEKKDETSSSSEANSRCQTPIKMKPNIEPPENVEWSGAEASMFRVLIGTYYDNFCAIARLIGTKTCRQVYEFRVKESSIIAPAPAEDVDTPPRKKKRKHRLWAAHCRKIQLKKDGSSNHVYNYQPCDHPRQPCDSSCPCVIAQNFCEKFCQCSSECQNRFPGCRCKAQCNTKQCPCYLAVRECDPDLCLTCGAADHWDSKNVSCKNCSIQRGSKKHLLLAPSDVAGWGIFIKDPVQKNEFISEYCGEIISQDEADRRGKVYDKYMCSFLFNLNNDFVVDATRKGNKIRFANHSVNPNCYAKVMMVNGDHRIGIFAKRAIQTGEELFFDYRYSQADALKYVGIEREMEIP
Chain of EZH2 within the PRC2 complex (FLAG-EZH2, EED, SUZ12, RbAp48, AEBP2) (O75530 whole entry partner): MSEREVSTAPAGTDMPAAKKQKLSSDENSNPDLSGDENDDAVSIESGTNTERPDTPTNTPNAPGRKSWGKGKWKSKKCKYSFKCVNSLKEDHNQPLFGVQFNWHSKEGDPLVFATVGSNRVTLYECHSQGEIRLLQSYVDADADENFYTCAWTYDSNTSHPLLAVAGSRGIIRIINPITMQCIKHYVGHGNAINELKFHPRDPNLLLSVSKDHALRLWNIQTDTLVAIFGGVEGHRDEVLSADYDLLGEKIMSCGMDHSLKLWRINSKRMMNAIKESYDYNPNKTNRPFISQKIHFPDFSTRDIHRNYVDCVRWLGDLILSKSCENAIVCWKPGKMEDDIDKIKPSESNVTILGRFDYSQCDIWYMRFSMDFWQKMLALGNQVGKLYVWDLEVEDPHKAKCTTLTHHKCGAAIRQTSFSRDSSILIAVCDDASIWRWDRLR
Chain of EZH2 within the PRC2 complex (FLAG-EZH2, EED, SUZ12, RbAp48, AEBP2) (Q15022 whole entry partner): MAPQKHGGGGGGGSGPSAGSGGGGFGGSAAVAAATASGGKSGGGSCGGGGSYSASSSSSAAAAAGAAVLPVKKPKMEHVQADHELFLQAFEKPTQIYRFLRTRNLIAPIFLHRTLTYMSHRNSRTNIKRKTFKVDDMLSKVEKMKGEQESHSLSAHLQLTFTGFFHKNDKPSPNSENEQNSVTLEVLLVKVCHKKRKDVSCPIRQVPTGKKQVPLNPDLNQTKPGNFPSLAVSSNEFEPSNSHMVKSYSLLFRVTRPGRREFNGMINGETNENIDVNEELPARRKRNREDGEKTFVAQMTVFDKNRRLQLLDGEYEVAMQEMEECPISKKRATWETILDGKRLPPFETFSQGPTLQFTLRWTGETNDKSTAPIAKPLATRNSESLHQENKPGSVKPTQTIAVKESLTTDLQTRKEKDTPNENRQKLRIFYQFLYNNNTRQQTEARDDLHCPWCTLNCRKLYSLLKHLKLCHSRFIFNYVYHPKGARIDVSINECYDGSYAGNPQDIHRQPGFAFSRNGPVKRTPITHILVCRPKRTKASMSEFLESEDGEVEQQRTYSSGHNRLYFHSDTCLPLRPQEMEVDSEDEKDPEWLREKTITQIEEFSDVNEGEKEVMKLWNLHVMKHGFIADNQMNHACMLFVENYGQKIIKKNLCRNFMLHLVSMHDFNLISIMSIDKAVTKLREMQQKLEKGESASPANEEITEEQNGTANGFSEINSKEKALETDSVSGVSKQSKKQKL
Chain of EZH2 within the PRC2 complex (FLAG-EZH2, EED, SUZ12, RbAp48, AEBP2) (Q09028 whole entry partner): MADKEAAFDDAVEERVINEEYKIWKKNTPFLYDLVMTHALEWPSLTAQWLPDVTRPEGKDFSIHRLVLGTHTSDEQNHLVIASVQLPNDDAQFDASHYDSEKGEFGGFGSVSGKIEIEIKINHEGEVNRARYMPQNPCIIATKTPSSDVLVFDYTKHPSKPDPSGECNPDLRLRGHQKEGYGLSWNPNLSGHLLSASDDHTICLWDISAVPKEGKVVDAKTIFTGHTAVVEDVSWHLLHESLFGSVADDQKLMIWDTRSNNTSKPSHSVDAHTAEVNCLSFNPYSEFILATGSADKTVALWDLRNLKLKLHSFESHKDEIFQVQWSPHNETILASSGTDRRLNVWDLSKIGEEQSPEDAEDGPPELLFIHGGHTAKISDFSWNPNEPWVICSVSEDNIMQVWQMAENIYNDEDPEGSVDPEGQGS
Chain of EZH2 within the PRC2 complex (FLAG-EZH2, EED, SUZ12, RbAp48, AEBP2) (Q6ZN18 whole entry partner): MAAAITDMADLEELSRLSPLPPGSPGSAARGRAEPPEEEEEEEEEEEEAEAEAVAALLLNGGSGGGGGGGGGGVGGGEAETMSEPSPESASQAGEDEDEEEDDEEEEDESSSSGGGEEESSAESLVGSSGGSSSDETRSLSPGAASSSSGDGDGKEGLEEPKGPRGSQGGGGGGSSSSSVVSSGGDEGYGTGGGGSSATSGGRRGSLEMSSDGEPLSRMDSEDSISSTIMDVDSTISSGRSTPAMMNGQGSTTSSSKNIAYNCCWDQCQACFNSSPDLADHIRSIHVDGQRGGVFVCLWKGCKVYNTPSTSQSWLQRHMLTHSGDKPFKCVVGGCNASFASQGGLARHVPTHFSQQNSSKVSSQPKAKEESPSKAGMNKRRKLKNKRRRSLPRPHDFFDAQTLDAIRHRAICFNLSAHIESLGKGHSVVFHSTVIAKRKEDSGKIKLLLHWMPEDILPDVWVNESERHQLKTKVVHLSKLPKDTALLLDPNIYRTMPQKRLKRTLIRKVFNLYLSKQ
Protocol: Compounds contained herein were evaluated for their ability to inhibit the methyltransferase activity of EZH2 within the PRC2 complex. Human PRC2 complex was prepared by co-expressing each of the 5 member proteins (FLAG-EZH2, EED, SUZ12, RbAp48, AEBP2) in Sf9 cells followed by co-purification. Enzyme activity was measured in a scintillation proximity assay (SPA) where a tritiated methyl group is transferred from 3H-SAM to a lysine residue on a biotinylated, unmethylated peptide substrate derived from histone H3. The peptides were captured on streptavidin-coated SPA beads and the resulting signal was read on a ViewLux plate reader.
Part A. Compound Preparation
• 1. Prepare 10 mM stock of compounds from solid in 100% DMSO. • 2. Set up an 11-point serial dilution (1:4 dilution, top concentration 10 mM) in 100% DMSO for each test compound in a 384 well plate leaving columns 6 and 18 for DMSO controls. • 3. Dispense 10 nL of compound from the dilution plate into reaction plates (Corning, 384-well polystyrene NBS, Cat #3673). Part B. Reagent Preparation Prepare the following solutions: • 1. 1× Base Buffer, 50 mM Tris-HCl, pH 8, 2 mM MgCl2: Per 1 L of base buffer, combine 1 M Tris-HCl, pH 8 (50 mL), 1 M MgCl2 (2 mL), and distilled water (948 mL). • 2. 1× Assay Buffer: Per 10 mL of 1× Assay Buffer, combine 1× Base Buffer (9.96 mL), 1 M DTT (40 uL), and 10% Tween-20 (1 uL) to provide a final concentration of 50 mM Tris-HCl, pH 8, 2 mM MgCl2, 4 mM DTT, 0.001% Tween-20. • 3. 2× Enzyme Solution: Per 10 mL of 2× Enzyme Solution, combine 1× Assay Buffer (9.99 mL) and 3.24 uM EZH2 5 member complex (6.17 uL) to provide a final enzyme concentration of 1 nM. • 4. SPA Bead Solution: Per 1 mL of SPA Bead Solution, combine Streptavidin coated SPA beads (PerkinElmer, Cat # RPNQ0261, 40 mg) and 1× Assay Buffer (1 mL) to provide a working concentration of 40 mg/mL. • 5. 2× Substrate Solution: Per 10 mL of 2× Substrate Solution, combine 40 mg/mL SPA Bead Solution (375 uL), 1 mM biotinylated histone H3K27 peptide (200 uL), 12.5 uM 3H-SAM (240 uL; 1 mCi/mL), 1 mM cold SAM (57 uL), and 1× Assay Buffer (9.13 mL) to provide a final concentration of 0.75 mg/mL SPA Bead Solution, 10 uM biotinylated histone H3K27 peptide, 0.15 uM 3H-SAM (˜12 uCi/mL 3H-SAM), and 2.85 uM cold SAM. • 6. 2.67× Quench Solution: Per 10 mL of 2.67× Quench Solution, combine 1× Assay Buffer (9.73 mL) and 10 mM cold SAM (267 uL) to provide a final concentration of 100 uM cold SAM. Part C. Assay Reaction in 384-well Grenier Bio-One Plates Compound Addition • 1. Stamp 10 nL/well of 1000× Compound to test wells (as noted above). • 2. Stamp 10 nL/well of 100% DMSO to columns 6 & 18 (high and low controls, respectively). Assay • 1. Dispense 5 uL/well of 1× Assay Buffer to column 18 (low control reactions). • 2. Dispense 5 uL/well of 2× Substrate Solution to columns 1-24 (note: substrate solution should be mixed to ensure homogeneous bead suspension before dispensing into matrix reservoir). • 3. Dispense 5 uL/well of 2× Enzyme Solution to columns 1-17, 19-24. • 4. Incubate the reaction for 60 min at room temperature. Quench • 1. Dispense 6 uL/well of the 2.67× Quench Solution to columns 1-24. • 2. Seal assay plates and spin for ˜1 min at 500 rpm. • 3. Dark adapt plates in the ViewLux instrument for 15-60 min. Read Plates • 1. Read the assay plates on the Viewlux Plate Reader utilizing the 613 nm emission filter or clear filter (300 s exposure). Reagent addition can be done manually or with automated liquid handler. Results
Percent inhibition was calculated relative to the DMSO control for each compound concentration and the resulting values were fit using standard IC50 fitting parameters within the ABASE data fitting software package.

[2] = for XRPD after DVS experiment: form change or change in crystallinity: post DVS sample

SMILES	IC50 [1] [nM]	also measured
Cc1cc(C)c(CN2CCCc3sc([C@H](C)C4CCN(CC(C)C)CC4)c(C)c3C2=O)c(=O)[nH]1 [Example 3, (R)-5-((4,6-Dimethyl-2-oxo-1,2-dihydropyridin-3-yl)methyl)-2-(1-(1-isobutylpiperidin-4-yl)ethyl)-3-methyl-5,6,7,8-tetrahydro-4H-thieno[3,2-c]azepin-4-one]	≤ 10	–
Cc1cc(C)c(CN2CCCc3sc([C@H](C)C4CCN(CC5(C)CCC5)CC4)c(C)c3C2=O)c(=O)[nH]1.Cl [hydrochloric acid salt of (R)-5-((4,6-dimethyl-2-oxo-1,2-dihydropyridin-3-yl)methyl)-3-methyl-2-(1-(1-((1-methylcyclobutyl)methyl)piperidin-4-yl)ethyl)-5,6,7,8-tetrahydro-4H-thieno[3,2-c]azepin-4-one]	–	hygroscopicity ([2]; DVS isotherm 5-95% RH): low level of hygroscopicity; DVS moisture uptake ([2]; between 5-75% RH): ~0.5%; DVS total uptake of water ([2]; from 5-95% RH): 0.6%; XRPD after DVS experiment: form change or change in crystallinity [2]: did not show a change in crystal form or crystallinity
Cc1cc(C)c(CN2CCCc3sc([C@H](C)C4CCN(CC5(C)CCC5)CC4)c(C)c3C2=O)c(=O)[nH]1 [Example 10, (R)-5-((4,6-Dimethyl-2-oxo-1,2-dihydropyridin-3-yl)methyl)-3-methyl-2-(1-(1-((1-methylcyclobutyl)methyl)piperidin-4-yl)ethyl)-5,6,7,8-tetrahydro-4H-thieno[3,2-c]azepin-4-one]	≤ 10	–
Cc1cc(C)c(CN2CCCc3sc([C@H](C)C4CCN(CC(C)(C)C)CC4)c(C)c3C2=O)c(=O)[nH]1 [Example 1, (R)-5-((4,6-Dimethyl-2-oxo-1,2-dihydropyridin-3-yl)methyl)-3-methyl-2-(1-(1-neopentylpiperidin-4-yl)ethyl)-5,6,7,8-tetrahydro-4H-thieno[3,2-c]azepin-4-one]	≤ 10	–
Cc1cc(C)c(CN2CCCc3sc([C@H](C)C4CCN(CC(C)(C)C)CC4)c(C)c3C2=O)c(=O)[nH]1.Cl [hydrochloric acid salt of (R)-5-((4,6-dimethyl-2-oxo-1,2-dihydropyridin-3-yl)methyl)-3-methyl-2-(1-(1-neopentylpiperidin-4-yl)ethyl)-5,6,7,8-tetrahydro-4H-thieno[3,2-c]azepin-4-one]	–	DVS total moisture uptake ([2]; first cycle from 40-75% RH): 0.5%; XRPD after DVS experiment: form change or change in crystallinity [2]: did not indicate a form change or change in crystallinity; DVS decrease ([2]; second cycle, between 80-90% RH): 0.4%; DVS sorption ([2]; second cycle, from 5-80% RH): 1.0%
Cc1cc(C)c(CN2CCCc3sc([C@H](C)C4CCN(CC5CCC5)CC4)c(C)c3C2=O)c(=O)[nH]1 [Example 2, (R)-2-(1-(1-(Cyclobutylmethyl)piperidin-4-yl)ethyl)-5-((4,6-dimethyl-2-oxo-1,2-dihydropyridin-3-yl)methyl)-3-methyl-5,6,7,8-tetrahydro-4H-thieno[3,2-c]azepin-4-one]	≤ 10	–

Further lines, with some results ahead:

IC50 [1] [nM]	SMILES	also measured
≤ 10	Cc1cc(C)c(CN2CCCc3sc([C@H](C)C4CCN(CC5CCCC5)CC4)c(C)c3C2=O)c(=O)[nH]1 [Example 4, (R)-2-(1-(1-(Cyclopentylmethyl)piperidin-4-yl)ethyl)-5-((4,6-dimethyl-2-oxo-1,2-dihydropyridin-3-yl)methyl)-3-methyl-5,6,7,8-tetrahydro-4H-thieno[3,2-c]azepin-4-one]	–
≤ 10	Cc1cc(C)c(CN2CCCc3sc([C@H](C)C4CCN(CC(C)(C)F)CC4)c(C)c3C2=O)c(=O)[nH]1 [Example 6, (R)-5-((4,6-Dimethyl-2-oxo-1,2-dihydropyridin-3-yl)methyl)-2-(1-(1-(2-fluoro-2-methylpropyl)piperidin-4-yl)ethyl)-3-methyl-5,6,7,8-tetrahydro-4H-thieno[3,2-c]azepin-4-one]	–
≤ 10	Cc1cc(C)c(CN2CCCc3sc([C@H](C)C4CCN(CC5CC5)CC4)c(C)c3C2=O)c(=O)[nH]1 [Example 7, (R)-2-(1-(1-(Cyclopropylmethyl)piperidin-4-yl)ethyl)-5-((4,6-dimethyl-2-oxo-1,2-dihydropyridin-3-yl)methyl)-3-methyl-5,6,7,8-tetrahydro-4H-thieno[3,2-c]azepin-4-one]	–
≤ 10	CCC(C)(C)CN1CCC([C@@H](C)c2sc3c(c2C)C(=O)N(Cc2c(C)cc(C)[nH]c2=O)CCC3)CC1 [Example 5, (R)-5-((4,6-Dimethyl-2-oxo-1,2-dihydropyridin-3-yl)methyl)-2-(1-(1-(2,2-dimethylbutyl)piperidin-4-yl)ethyl)-3-methyl-5,6,7,8-tetrahydro-4H-thieno[3,2-c]azepin-4-one]	–
≤ 10	Cc1cc(C)c(CN2CCCc3sc([C@H](C)C4CCN(CC5(C)CCCC5)CC4)c(C)c3C2=O)c(=O)[nH]1 [Example 8, (R)-5-((4,6-Dimethyl-2-oxo-1,2-dihydropyridin-3-yl)methyl)-3-methyl-2-(1-(1-((1-methylcyclopentyl)methyl)piperidin-4-yl)ethyl)-5,6,7,8-tetrahydro-4H-thieno[3,2-c]azepin-4-one]	–
≤ 10	Cc1cc(C)c(CN2CCCc3sc([C@H](C)C4CCN(CC56CCC(CC5)CC6)CC4)c(C)c3C2=O)c(=O)[nH]1 [Example 9, (R)-2-(1-(1-(Bicyclo[2.2.2]octan-1-ylmethyl)piperidin-4-yl)ethyl)-5-((4,6-dimethyl-2-oxo-1,2-dihydropyridin-3-yl)methyl)-3-methyl-5,6,7,8-tetrahydro-4H-thieno[3,2-c]azepin-4-one]	–
≤ 10	Cc1cc(C)c(CN2CCCc3sc([C@H](C)C4CCN(CC5(C)CC5)CC4)c(C)c3C2=O)c(=O)[nH]1 [Example 11, (R)-5-((4,6-Dimethyl-2-oxo-1,2-dihydropyridin-3-yl)methyl)-3-methyl-2-(1-(1-((1-methylcyclopropyl)methyl)piperidin-4-yl)ethyl)-5,6,7,8-tetrahydro-4H-thieno[3,2-c]azepin-4-one]	–
